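Five concentrations, 48 hours, 96-well plates. TGI is the concentration that stops growth completely.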

Among the test systems are UACC-257 melanoma; KM12 colon; SK-OV-3 ovarian; TK-10 renal; LOX IMVI melanoma; ACHN renal; SK-MEL-2 melanoma; IGROV1 ovarian; HCT-15 colon; NCI-H522 lung; OVCAR-3 ovarian; HOP-92 NSCLC; MALME-3M melanoma; OVCAR-8 ovarian; UO-31 renal; HS 578T breast; SW-620 colon; SK-MEL-28 melanoma; CCRF-CEM leukemia; SK-MEL-5 melanoma.
Common to all, as to assay: NCI anticancer screen, dose series, 48 h

On to `Cc1[nH]c(=O)c2oc3cc4ccccc4cc3c2c1C(=O)O`, for which the TGI in the test with UACC-257 melanoma, with KM12 colon, in the test on SK-OV-3 ovarian, in the test with TK-10 renal, in the test with LOX IMVI melanoma and in the test on ACHN renal was above 10 µM in each case. Also, the TGI with SK-MEL-2 melanoma, in the test with IGROV1 ovarian, in the test with HCT-15 colon, with NCI-H522 lung, with OVCAR-3 ovarian and with HOP-92 NSCLC was above 10 µM in each case. In addition, the TGI in the test with MALME-3M melanoma, with OVCAR-8 ovarian, with UO-31 renal, with HS 578T breast and with SW-620 colon was above 10 µM throughout.

As to `O=C(NC1CCCCC1)c1n[nH]nc1Cl`, the TGI with SK-MEL-28 melanoma, in the test on UACC-257 melanoma, in the test on KM12 colon, in the test with SK-OV-3 ovarian, in the test with TK-10 renal and in the test on LOX IMVI melanoma was above 100 µM in each case. Further, the TGI with CCRF-CEM leukemia, in the test on ACHN renal, in the test on SK-MEL-2 melanoma, in the test on IGROV1 ovarian, in the test with HCT-15 colon and in the test with OVCAR-3 ovarian was above 100 µM throughout. Also, the TGI in the test with HOP-92 NSCLC, in the test on SK-MEL-5 melanoma, in the test with OVCAR-8 ovarian, in the test on UO-31 renal, with HS 578T breast and with SW-620 colon was above 100 µM each time.

As for `O=C(c1c(F)c(F)c(F)c(F)c1F)n1c(=S)n(C(=O)c2c(F)c(F)c(F)c(F)c2F)c2ccccc21`, the TGI with SK-MEL-28 melanoma, with UACC-257 melanoma, with KM12 colon, with SK-OV-3 ovarian, in the test with TK-10 renal and in the test with LOX IMVI melanoma was above 100 µM each time. Moreover, the TGI was 49.9 µM in the test on CCRF-CEM leukemia; above 100 µM with ACHN renal; above 100 µM in the test with SK-MEL-2 melanoma; above 100 µM with IGROV1 ovarian; above 100 µM in the test on HCT-15 colon; above 100 µM in the test with HOP-92 NSCLC. Moreover, the TGI in the test with SK-MEL-5 melanoma, in the test on OVCAR-8 ovarian, in the test on UO-31 renal, in the test on HS 578T breast and in the test on SW-620 colon was above 100 µM in each case.

On to `Fc1ccc2c(c1)SC1=Nc3sc4cc(F)ccc4[n+]3CN12`, for which the TGI in the test with SK-MEL-28 melanoma is above 100 µM; with UACC-257 melanoma it was 92.1 µM; in the test with SK-OV-3 ovarian it was above 100 µM; with TK-10 renal, 42.7 µM; in the test on LOX IMVI melanoma, 52.5 µM; in the test on ACHN renal, 62.2 µM. The TGI in the test with SK-MEL-2 melanoma was 55 µM; with IGROV1 ovarian, 30.6 µM; with HCT-15 colon it was above 100 µM; in the test with NCI-H522 lung, 35.2 µM; in the test with OVCAR-3 ovarian, 36 µM; in the test with HOP-92 NSCLC, 51.6 µM. Besides, the TGI with SK-MEL-5 melanoma was 28.2 µM; in the test with MALME-3M melanoma, 47.1 µM; in the test on OVCAR-8 ovarian it was 38 µM; with UO-31 renal, 74.3 µM; in the test with HS 578T breast, 38.4 µM; in the test on SW-620 colon, above 100 µM.

Take `CC(C)(C)n1c(=O)n2c(-c3ccccc3)c(-c3ccccc3)n2c1=O`: the TGI in the test on SK-MEL-28 melanoma, with UACC-257 melanoma, with KM12 colon, with SK-OV-3 ovarian, in the test with TK-10 renal and in the test on LOX IMVI melanoma was above 100 µM each time. In addition, the TGI with ACHN renal was above 100 µM; in the test on SK-MEL-2 melanoma, 85.3 µM; in the test with IGROV1 ovarian, above 100 µM; in the test with HCT-15 colon, above 100 µM; with NCI-H522 lung it was 56.5 µM; in the test on OVCAR-3 ovarian it was above 100 µM. Also, the TGI with HOP-92 NSCLC, with SK-MEL-5 melanoma, with MALME-3M melanoma, with OVCAR-8 ovarian, in the test on UO-31 renal and in the test with HS 578T breast was above 100 µM in each case. The molecule also showed a TGI in the test on SW-620 colon above 100 µM.

Take `CCCCCCCCCCCCCCCCOP(=O)([O-])OCC[N+](C)(C)C1CC(C)(C)N(O)C(C)(C)C1`: the TGI with UACC-257 melanoma, in the test with KM12 colon, with SK-OV-3 ovarian, in the test on TK-10 renal, in the test with ACHN renal and with SK-MEL-2 melanoma was above 100 µM throughout. For the same molecule, the TGI in the test with HCT-15 colon, with NCI-H522 lung, in the test with OVCAR-3 ovarian, in the test on HOP-92 NSCLC, with SK-MEL-5 melanoma and with MALME-3M melanoma was above 100 µM in each case. Further, the TGI in the test on OVCAR-8 ovarian, in the test with UO-31 renal, in the test on HS 578T breast and in the test on SW-620 colon was above 100 µM throughout.

In the case of `c1ccc(C(NC2=NCCO2)C2CC2)cc1` (centres undefined), the TGI in the test on SK-MEL-28 melanoma, in the test on UACC-257 melanoma, with KM12 colon, in the test on SK-OV-3 ovarian, in the test with TK-10 renal and in the test on LOX IMVI melanoma was above 100 µM throughout. Also, the TGI in the test with ACHN renal, with SK-MEL-2 melanoma, with IGROV1 ovarian, in the test with HCT-15 colon, in the test on NCI-H522 lung and in the test with OVCAR-3 ovarian was above 100 µM throughout. Moreover, the TGI in the test with HOP-92 NSCLC, in the test with SK-MEL-5 melanoma, in the test on MALME-3M melanoma, with OVCAR-8 ovarian, in the test with UO-31 renal and with HS 578T breast was above 100 µM throughout. In addition, the TGI in the test with SW-620 colon was above 100 µM.

These data come from PubChem BioAssay (NCI).
